Assays:
[1] = tested on: MNU-induced retinal photoreceptor cell degeneration; assay: Electroretinogram of rats with MNU-induced retinal photoreceptor cell degeneration treated with GLS oil and/or DHA; assay type: in vivo, Sprague Dawley rats; design: a-Wave Amplitude / b-Wave Amplitude: unit not given here; conditions: MNU 40 mg/kg i.p.
Protocol: Animals and grouping: One hundred and five 50-day-old Sprague Dawley rats were used in the experiment. Twenty-five rats were selected randomly as the normal control (receiving an excipient via gastric gavage). Eighty rats were used for establishing the photoreceptor cell degeneration model and were treated by intraperitoneal injection with a single dose of MNU at 40 mg/kg. The MNU-injected rats were randomly divided into four experimental groups:
(1) GLS oil treatment group (receiving GSL oil and an excipient via gastric gavage);
(2) GLS oil+DHA treatment group (receiving GSL oil, DHA, and an excipient via gastric gavage);
(3) DHA control group (receiving DHA and an excipient via gastric gavage;
(4) Model control group (receiving an excipient via gastric gavage).
The excipient used in this experiment is hydroxypropyl methyl cellulose. The treatment started three days before the administration of MNU (day-3). Each animal in Groups 1-3 received a daily gastric feeding of GSL oil only, GSL oil and DHA (2 mg/kg), or DHA (2 mg/kg) only, in 1 ml 0.5% hydroxypropyl methyl cellulose. Animals in Group 4 received 1 ml 0.5% hydroxypropyl methyl cellulose.
Electroretinogram examination: The pupils of rats were dilated as described in Example 1. The electroretinogram examinations were conducted under the following conditions:
A Neuropack II electrophysiological analyzer was employed to measure the visual electrophysiology.

[2] = tested on: MNU-induced retinal photoreceptor cell degeneration; assay: Pathological examination of MNU-induced retinal photoreceptor cell damage in rats treated with GLS oil and/or DHA; conditions: MNU 40 mg/kg i.p., damage score
[3] = daily gastric gavage from day -3, day 1
[4] = daily gastric gavage from day -3, day 3
[5] = daily gastric gavage from day -3, day 5
[6] = daily gastric gavage from day -3, day 7
[7] = daily gastric gavage from day -3, day 10

Question: `CC/C=C\C/C=C\C/C=C\C/C=C\C/C=C\C/C=C\CCC(=O)O` [DHA, Docosahexaenoic acid] was tested. Which “a-Wave Amplitude” value [1, 3] did it give?
Answer: 18.43 ± 17.94

Question: And the “a-Wave Latent Period” value [1, 3]?
Answer: 10.35 ± 9.02

Question: What about the “b-Wave Amplitude” value [1, 3] of the same compound?
Answer: 56.90 ± 61.16

Question: And the “b-Wave Latent Period” value [1, 3]?
Answer: 43.92 ± 38.08

Question: What about the “a-Wave Amplitude” value [1, 4] of the same compound?
Answer: 14.13 ± 15.71

Question: And the “a-Wave Latent Period” value [1, 4]?
Answer: 8.64 ± 9.91

Question: What about the “b-Wave Amplitude” value [1, 4] of the same compound?
Answer: 59.43 ± 65.22

Question: And the “b-Wave Latent Period” value [1, 4]?
Answer: 35.10 ± 37.34

Question: What about the “a-Wave Amplitude” value [1, 5] of the same compound?
Answer: 10.27 ± 11.15

Question: What about the “a-Wave Latent Period” value [1, 5] of the same compound?
Answer: 8.30 ± 8.81

Question: And the “b-Wave Amplitude” value [1, 5]?
Answer: 47.85 ± 52.05

Question: What about the “b-Wave Latent Period” value [1, 5] of the same compound?
Answer: 34.92 ± 36.97

Question: And the “a-Wave Amplitude” value [1, 6]?
Answer: 16.61 ± 18.95

Question: What about the “a-Wave Latent Period” value [1, 6] of the same compound?
Answer: 9.01 ± 9.56

Question: What about the “b-Wave Amplitude” value [1, 6] of the same compound?
Answer: 53.93 ± 58.06

Question: What about the “b-Wave Latent Period” value [1, 6] of the same compound?
Answer: 36.24 ± 38.45

Question: What about the “a-Wave Amplitude” value [1, 7] of the same compound?
Answer: 19.70 ± 17.97

Question: And the “a-Wave Latent Period” value [1, 7]?
Answer: 10.42 ± 9.10

Question: What about the “b-Wave Amplitude” value [1, 7] of the same compound?
Answer: 64.71 ± 57.60

Question: And the “b-Wave Latent Period” value [1, 7]?
Answer: 43.23 ± 37.88

Question: What about the “Number of Eyes with extinguished electroretinogram” value (“Number of Eyes” for short) ([1]; n = 10, day 3) of the same compound?
Answer: 5

Question: And the “Number of Eyes” value ([1]; n = 10, day 5)?
Answer: 5

Question: And the “Number of Eyes” value ([1]; n = 10, day 7)?
Answer: 5

Question: And the “Number of Eyes” value ([1]; n = 10, day 10)?
Answer: 4

Question: What about the “Number of Eyes” value ([1]; n = 10, day 11) of the same compound?
Answer: 4

Question: What about the “The Damage Degree of the Retinal Photoreceptor Cell Pathology” value ([2]; day 1) of the same compound?
Answer: 1.40 ± 0.52

Question: And the “The Damage Degree of the Retinal Photoreceptor Cell Pathology” value ([2]; day 3)?
Answer: 2.2 ± 1.32

Question: And the “The Damage Degree of the Retinal Photoreceptor Cell Pathology” value ([2]; day 5)?
Answer: 2.9 ± 2.85

Question: What about the “The Damage Degree of the Retinal Photoreceptor Cell Pathology” value ([2]; day 7) of the same compound?
Answer: 2.80 ± 2.97

Question: What about the “The Damage Degree of the Retinal Photoreceptor Cell Pathology” value ([2]; day 10) of the same compound?
Answer: 2.60 ± 2.95

From patent US20090022757A1, “Method for treating photoreceptor cell degeneration” (priority 2007, published 2009)
